According to the supplement of paper PMC11061612:

What was measured:
[1] = test system: SK-LU-1 (Lung Adenocarcinoma); experiment: Bliss excess, mean over the matrix (fraction); higher = more synergy
In short: (§1)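 Cell lines in DMEM/F12 or RPMI with 10% FBS were plated in 1536-well plates, held 24 hours at 37°C, 5% CO2, then given two-drug dose matrices for 72 hours (DMSO typically 0.2%). Viability was read by CellTiter-Glo 2.0 luminescence and scaled as inhibition from 0 (vehicle wells) to 1 (blank wells). Combination Emax is the second-highest inhibition in the matrix; Bliss excess is observed combination effect minus expected EA + EB − EA·EB, EA and EB being single-agent effects.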

[2] = test system: SK-N-AS (Neuroblastoma); experiment: combination Emax (second highest fraction inhibited in the dose matrix, 72 h); higher = more inhibition; extreme values may be limits of the assay
In short: as §1

[3] = test system: SKN (Other Solid Carcinomas); experiment: as above
In short: as §1

[4] = test system: HAL-01 (B-Lymphoblastic Leukemia); experiment: as above
In short: as §1

[5] = test system: NCI-H1355 (Lung Adenocarcinoma); experiment: as above
In short: as §1

[6] = test system: Ca-Ski (Cervical Carcinoma); experiment: as above
In short: as §1

[7] = test system: MOLT-4 (T-Lymphoblastic Leukemia); experiment: as above
In short: as §1

[8] = test system: EFO-21 (Ovarian Carcinoma); experiment: as above
In short: as §1

[9] = test system: Mo-T (Other Blood Carcinomas); experiment: as above
In short: as §1

[10] = test system: SW872 (Other Solid Carcinomas); experiment: as above
In short: as §1

[11] = test system: HCC1500 (Breast Carcinoma); experiment: Bliss excess, mean over the matrix (fraction); higher = more synergy
In short: as §1

[12] = test system: OACM5-1 (Esophageal Adenocarcinoma); experiment: as above
In short: as §1

[13] = test system: EW-1 (Ewing's Sarcoma); experiment: as above
In short: as §1

[14] = test system: HCC1937 (Breast Carcinoma); experiment: as above
In short: as §1

[15] = test system: NCI-H650 (Lung Adenocarcinoma); experiment: as above
In short: as §1

[16] = test system: LC-1-sq (Squamous Cell Lung Carcinoma); experiment: as above
In short: as §1

[17] = test system: Hey (Ovarian Carcinoma); experiment: as above
In short: as §1

[18] = test system: HCC2998 (Colorectal Carcinoma); experiment: as above
In short: as §1

[19] = test system: NCI-H1838 (Lung Adenocarcinoma); experiment: as above
In short: as §1

[20] = test system: NCI-H1092 (Small Cell Lung Carcinoma); experiment: as above
In short: as §1
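Wherever Bliss excess, mean over the matrix is given: after 72 h of two-drug dosing.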

| SMILES | Bliss excess [1] | combination Emax [2] | combination Emax [3] | combination Emax [4] | combination Emax [5] | combination Emax [6] | combination Emax [7] | combination Emax [8] | combination Emax [9] | combination Emax [10] | Bliss excess [11] | Bliss excess [12] | Bliss excess [13] | Bliss excess [14] | Bliss excess [15] | Bliss excess [16] | Bliss excess [17] | Bliss excess [18] | Bliss excess [19] | Bliss excess [20] |
| --- | --- | --- | --- | --- | --- | --- | --- | --- | --- | --- | --- | --- | --- | --- | --- | --- | --- | --- | --- | --- |
| N#Cc1cnc(Nc2cc(NC[C@H]3CNCCO3)c(C(F)(F)F)cn2)cn1 [SRA737] + O=c1[nH]cc(F)c(=O)[nH]1 [5-Fluorouracil] (first compound max 10 µM, 7x7, partner max 20 µM) | -0.0137 | 0.565 | 0.361 | 1 | 0.517 | 0.862 | 1 | 0.313 | 0.544 |  |  |  |  |  |  |  |  |  |  |  |
| N#Cc1cnc(Nc2cc(NC[C@H]3CNCCO3)c(C(F)(F)F)cn2)cn1 [SRA737] + CCc1c2c(nc3ccc(O)cc13)-c1cc3c(c(=O)n1C2)COC(=O)[C@]3(O)CC [SN-38] (first compound max 10 µM, 7x7, partner max 0.3 µM) | -0.0943 | 0.763 | 0.749 | 1 | 0.599 | 0.992 | 1 | 0.541 | 0.821 | 0.947 |  |  |  |  |  |  |  |  |  |  |
| CN(CCO)CC[C@H](CSc1ccccc1)Nc1ccc(S(=O)(=O)NC(=O)c2ccc(N3CCC([C@@H](O)c4ccccc4-c4ccc(Cl)cc4)CC3)cc2)cc1S(=O)(=O)C(F)(F)F [AZD4320] + Nc1ccn([C@@H]2O[C@H](CO)[C@@H](O)C2(F)F)c(=O)n1 [Gemcitabine] (first compound max 1 µM, 7x7, partner max 0.3 µM) | -0.036 | 0.672 | 0.783 | 1 | 0.406 | 0.91 | 1 | 0.473 | 0.997 | 0.929 |  |  |  |  |  |  |  |  |  |  |
| COc1cc2c(cc1OCCCCCOc1cc3c(cc1OC)C(=O)N1C=C(C)C[C@H]1C=N3)N=C[C@@H]1CC(C)=CN1C2=O [SG3199] + O=C(c1cc(Cc2n[nH]c(=O)c3ccccc23)ccc1F)N1CCN(C(=O)C2CC2)CC1 [Olaparib] (first compound max 0.001 µM, 7x7, partner max 10 µM) |  | 0.0679 | 0.0757 | 0.215 | 0.104 | 0.0833 | 0.402 | 0.176 | 0.322 | 0.0788 | -0.0144 | -0.0313 | 0.0403 | -0.0623 | -0.0206 | -0.0029 | -0.0086 | -0.0099 | -0.0795 | -0.0165 |
| Cc1cc2ncnn2cc1Nc1ncc2c(n1)n(C1CCOCC1)c(=O)n2C [AZD7648] + C[C@@H]1COCCN1C2=NC(=NC(=C2)C3(CC3)[S@](=N)(=O)C)C4=C5C=CNC5=NC=C4 [AZD6738] (first compound max 10 µM, 7x7, partner max 10 µM) |  | 0.938 | 0.47 | 0.984 | 0.661 | 0.581 | 1 | 0.488 | 0.569 | 0.496 | 0.0489 | 0.0198 | 0.024 | -0.0345 | 0.0048 | 0.0311 | 0.0229 | 0.0336 | -0.0062 | 0.0073 |
| CN(CCO)CC[C@H](CSc1ccccc1)Nc1ccc(S(=O)(=O)NC(=O)c2ccc(N3CCC([C@@H](O)c4ccccc4-c4ccc(Cl)cc4)CC3)cc2)cc1S(=O)(=O)C(F)(F)F [AZD4320] + Cn1cnc2c(F)c(Nc3ccc(Br)cc3Cl)c(C(=O)NOCCO)cc21 [Selumetinib] (first compound max 1 µM, 7x7, partner max 3 µM) |  | 0.776 | 0.454 | 0.916 | 0.368 | 0.588 | 0.993 | 0.322 | 0.996 | 0.21 | 0.0166 | 0.0624 | 0.0387 | -0.0001 | 0.119 | 0.0514 | 0.0771 | 0.0449 | 0.0376 | -0.0193 |
| N#Cc1cnc(Nc2cc(NC[C@H]3CNCCO3)c(C(F)(F)F)cn2)cn1 [SRA737] + Nc1ccn([C@@H]2O[C@H](CO)[C@@H](O)C2(F)F)c(=O)n1 [Gemcitabine] (first compound max 10 µM, 7x7, partner max 0.3 µM) | -0.101 | 0.712 | 0.729 | 1 | 0.644 | 0.815 | 1 | 0.585 | 0.737 | 0.905 |  |  |  |  |  |  |  |  |  |  |
